Patent publication US20120289681A1, “CONJUGATES OF CELL-PENETRATING PEPTIDES AND PHOSPHORESCENT METALLOPORPHYRINS FOR INTRACELLULAR OXYGEN MEASUREMENT” (UNIVERSITY COLLEGE CORK, NATIONAL UNIVERSITY OF IRELAND CORK, priority 2009, published 2012)
Starred links: 1 amine or outer side, 2 acyl side, 3 side chain; linkers in the order of their positions; H or OH if unused. Non-standard residues stand in square brackets, D forms with d. Residues, ends and D or L forms follow the SMILES beside them. No end group written: not given here. *: point of attachment. X1 = CCOC(=O)CCC1=C(C)c2cc3[nH]c(cc4nc(cc5[nH]c(cc1n2)c(C)c5CCC(=O)OCC)C(C)=C4CCC(=O)NCCNC(=O)CCN1C(=O)CC(*)C1=O)c(C)c3CCC(=O)OCC; X2 = CC1=C(CCC(=O)O)c2cc3[nH]c(cc4nc(cc5[nH]c(cc1n2)c(CCC(=O)O)c5C)C(CCC(=O)*)=C4C)c(CCC(=O)O)c3C; X3 = S=C(Nc1ccc(CCN[*:1])cc1)[*:2]; PtCP‑NCS = not defined here

Tests used:
Format in all cases: cell-based
[1] = test system: PC12 cells; test: Cell loading with O2 probes assessed by time-resolved fluorometry (TR-F plate reader)
Experimental: (§1) PC12 cells were seeded in standard 96-well plates pre-coated with collagen IV at 5×10^4 cells/well, and differentiated for 3-5 days in RPMI supplemented with 1% horse serum, P/S, and 100 ng/ml nerve growth factor. HepG2 cells were cultured in DMEM supplemented with 10% FBS, 2 mM L-glutamine and P/S, CHO—in Ex-Cell CHO DHFR^− medium supplemented with 4 mM L-glutamine and 1 μM methotrexate, HCT116—in McCoy medium supplemented with 10% FBS, 2 mM L-glutamine and P/S. The samples with cells were then loaded by incubating them with 1-10 μM of the O2 probe (prepared as described in Example 1) in regular medium at 37° C., 5% CO2, for the required period of time. After incubation the cells were washed 3 times with medium and 0.1 ml of fresh medium were added to each well. For comparison, some samples with cells were loaded with 1.2 μM PtCP-BSA probe (Luxcel Biosciences) in the presence of 6 μM Endo-Porter, as previously described (Zhdanov A V et al—J Biol Chem 283:5650-5661; 2008). The plate with loaded cells and control samples was then measured on a time-resolved fluorescence (TR-F) plate reader Victor 2 (PerkinElmer) set at 37° C., using 340 nm excitation and 642 nm emission filters. Each well was measured several times by taking TR-F intensity reading at delay time of 30 μs and gate time 100 μs. Measured TR-F signals were averaged and used to assess the efficiency of loading.
(§2) PC12 cells (seeded at 50,000 cells/well in standard 96 well plates and differentiated under standard conditions) were loaded with the cell-penetrating O2 probes in standard medium, using 1-10 uM probe concentrations, volume 100 ul/well and incubation time ranging from 20 min to 24 hrs. After probe loading wells were carefully washed three times with DME medium without phenol red and containing NGF. The same protocol was used for loading of adherent HCT116, HepG2 and SHSY5Y cells, using corresponding media.

[2] = Cell viability assessment by total cellular ATP (CellTiter-Glo); conditions: rat, differentiated PC12 cells
Experimental: Cell viability was assessed by measuring total cellular ATP in the loaded cells using CellTiter-Glo luminescent kit (Promega). PC12 cells were seeded into 96 well plates at concentration 50,000/well, differentiated for 3 days, loaded with peptide probe at a concentration 10 uM for 21 hrs, then washed. CellTiter-Glo reagent was then added to each well and chemiluminescence was measured on the Victor2 plate reader (Perkin-Elmer). The total luminescence signal of unloaded cells was taken as 100% viability. For the cells loaded with probes, no significant changes in ATP were observed and cell viability was retained at 93-95%.

[3] = test system: PC12 cells; test: Respiratory response of probe-loaded cells to stimulation with FCCP (lifetime on TR-F reader); conditions: 1 uM FCCP
Experimental: as §2
Measurement of the cells loaded with probes was conducted on a TR-F plate reader Victor 2 (PerkinElmer, USA) at 37° C. as described in (O'Riordan T C et al—Anal Chem 79:9414-9419; 2007), using 340 nm excitation and 642 nm emission filters. Each well was measured repetitively every 1.8 minutes by taking two TR-F intensity readings at delay times of 30 μs (T1) and 70 μs (T2), using gate time 100 μs. Fluorescence intensity values at T1 (F1) and T2 (F2) were used for calculation of lifetime values using the following equation:
Lifetime [us]=(T2−T1)/ln(F1/F2),
For cell stimulation, the plate was monitored for 10-20 min to reach O2 and temperature equilibrium and obtain basal signals, then quickly withdrawn from the reader, compounds were added to the cells (10 μL of 10× stock solution) and monitoring was resumed. Metabolic effectors were added to the cells at the following final concentrations: 1 uM FCCP, 10 uM antimycin A, 0.5 uM Valinomycin, 5 mM EGTA, 100 mM KCl.

[4] = test system: HCT116 cells; test: Cell loading with O2 probes in HCT116 cells
Experimental: as §1, with “loading. […]” for “loading.”

[5] = test system: cells; test: Cell-penetrating / cell-loading ability (cell line not stated)
[6] = test system: cells; test: Toxicity of the dye/probe on cells (cell line not stated)

Row | Compound | uptake / accumulation in PC12 cells (in words) [1] | viability at 21 h, 10 µM [2] [%] | magnitude of respiratory response to FCCP in lifetime units [3] | loading of HCT116 cells (in words) [4] | also measured
1 | CCOC(=O)CCC1=C(C)c2cc3[nH]c(cc4nc(cc5[nH]c(cc1n2)c(C)c5CCC(=O)OCC)C(C)=C4CCC(=O)NCCNC(=O)CCN1C(=O)CC(SC[C@H](N)C(=O)N[C@@H](Cc2ccccc2)C(=O)N[C@@H](CCCNC(=N)N)C(=O)N[C@@H](CCCNC(=N)N)C(=O)N[C@@H](CCCNC(=N)N)C(=O)N[C@@H](CCCNC(=N)N)C(=O)N[C@@H](CCCNC(=N)N)C(=O)N[C@@H](CCCNC(=N)N)C(=O)N[C@@H](CCCNC(=N)N)C(=O)N[C@@H](CCCNC(=N)N)C(=O)N[C@@H](CCCNC(=N)N)C(=O)O)C1=O)c(C)c3CCC(=O)OCC (some centres unmarked) [PTCPTE-CFR9] (H-C(X1)FRRRRRRRRR-OH; N-terminus assumed) | higher intracellular uptake than PTCPTE-TAT | 93 to 95 | about 2 microseconds | – | average fluorescence signals (cell loading) ([1]; after 24 h of loading): about 200,000 counts; increase in probe lifetime on FCCP stimulation [3]: 2 us
2 | CC1=C(CCC(=O)O)c2cc3[nH]c(cc4nc(cc5[nH]c(cc1n2)c(CCC(=O)O)c5C)C(CCC(=O)NCCc1ccc(NC(=S)N[C@@H](Cc2ccccc2)C(=O)N[C@@H](CCCNC(=N)N)C(=O)N[C@@H](CCCNC(=N)N)C(=O)N[C@@H](CCCNC(=N)N)C(=O)N[C@@H](CCCNC(=N)N)C(=O)N[C@@H](CCCNC(=N)N)C(=O)N[C@@H](CCCNC(=N)N)C(=O)N[C@@H](CCCNC(=N)N)C(=O)N[C@@H](CCCNC(=N)N)C(=O)N[C@@H](CCCNC(=N)N)C(=O)O)cc1)=C4C)c(CCC(=O)O)c3C [PtCP-FR9] (X2-[X3]FRRRRRRRRR-OH; C-terminus assumed) | low uptake | 93 to 95 | about 2 microseconds | did not load well | –
3 | PEPP5: MTS-CGR9 peptide MGRTVVVLGGGISGLAAGCGRRRRRRRRR labelled with PTCPTE-MI derivative (PTCPTE-MI label) | – | – | – | – | cell-penetrating / cell-loading ability (in words) [5]: high cell loading efficiency
4 | Pt-tetrakis(pyridinium)porphine tetrachloride | – | – | – | – | toxicity on cells (in words) [6]: high cyto- and phototoxicity
5 | PtCP-BN: PtCP-NCS derivative labelled on N-terminal amino group of BN (bactenecin) peptide GPRPLPFPRPG ({PtCP‑NCS}-GPRPLPFPRPG; reading uncertain) | low uptake | – | – | did not load well | –
6 | PtCP-BSA: conventional cell-impermeable O2 probe (Luxcel Biosciences), loaded with Endo-Porter transfection reagent [reference compound] | – | – | – | – | average fluorescence signals (cell loading) ([1]; probe loaded by transfection (Endo-Porter)): 60,000 cps
